Experimental data as given in patent publication US20200172911A1, “USP30 INHIBITORS AND METHODS OF USE” (Genentech, Inc., priority 2012, published 2020).
Like-named read-outs stand apart in the source and are kept apart here. Where a SMILES comes first, the peptide text is derived from it. Bridges are numbered along the chain shown (N, C = ends).

Assays:
Drosophila [1] = assay: climbing assay with paraquat; format: in vivo; settings: control flies, paraquat 10 mM 48 hours, L-DOPA 1 mM 48 hours
Procedure: Climbing assays were performed using the following Drosophila lines: y, w; Actin5C-GAL4/CyO, y+ (Actin only); y, w; UAS-CG3016-RNAi/CyO, y+ (RNAi only); y, w; UAS-CG3016^RNAi, Actin5C-GAL4/CyO, y+ (USP30 knockdown).
1-day old adult males were fed a solution containing 5% sucrose only (in water) or 5% sucrose+10 mM paraquat (in water) on saturated Whatman paper. After 48 hours of treatment, flies were anesthetized using carbon dioxide and transferred in groups of ten to vials containing only 1% agarose for a 1-hour recovery period from the effects of carbon dioxide. The flies were then transferred into a new glass tube, gently tapped to the bottom and scored for their ability to climb. The number of flies climbing vertically >15 cm in 30 seconds was recorded.
To examine the effect of suppressing USP30 in neurons that are relevant to PD, we used dopamine decarboxylase (Ddc)-GAL439 to drive dUSP30^RNAi specifically in aminergic neurons of the fly nervous system. As a model of mitochondrial damage and PD, we treated flies with paraquat, a mitochondrial toxin linked to PD (Castello et al., J. Biol. Chem., 282: 14186-14193 (2007); Cocheme et al., J. Biol. Chem., 283: 1786-1798 (2008); Tanner et al., Environmental Health Perspect., 119: 866-872 (2011)). […]

hippocampal neurons = assay: mito-roGFP relative oxidation index imaging; format: cell-based, rat; settings: 0 = after DTT, 1 = after aldrithiol; luciferase shRNA control ~0.6
Text: Whether USP30 knockdown provides functional benefit to mitochondria and cells was examined next. ROS—which largely derive from mitochondria—is associated with neurodegenerative disorders and mitochondria dysfunction may contribute to increased oxidative stress in PD (Lee et al., Biochem. J, 441: 523-540 (2012)). To measure oxidative stress in mitochondria, mitochondria matrix-targeted ro-GFP (mito-roGFP), a redox-sensitive fluorescent protein that allows quantitative ratiometric imaging of mitochondrial redox potential was used (Dooley et al., J. Biol. Chem. 279: 22284-22293 (2004)).

[2] = system: cultured hippocampal neurons; assay: mt-Keima mitophagy index imaging in hippocampal neurons; format: cell-based, rat; settings: relative to luciferase shRNA
Procedure: Dissociated hippocampal neuron cultures were prepared as described (Seeburg et al., Neuron 58: 571-583 (2008)) and transfected using Lipofectamine LTX PLUS at DIV 8-10. Constructs were expressed for 1-3 days for overexpression experiments and 3-4 days for knockdown experiments. mt-Keima-transfected neurons were imaged with a Leica TCS SP5 Laser Scanning Confocal microscope with a 40×/1.25 oil objective (0.07 μm/pixel resolution, […] confocal z-step size). Cells were kept in a humidified chamber maintained at 37° C./5% CO2 during imaging. Two images were acquired using a hybrid detector in sequential mode with 458 nm (neutral pH signal) and 543 nm (acidic pH signal) laser excitation, and emission fluorescence collected between 630-710 nm. All image quantification was performed by custom-written macros in ImageJ. For mt-Keima quantification, cell bodies were manually outlined and total area of high ratio (543 nm/458 nm) lysosomal signal was divided by the total area of somatic mitochondrial signal (mitophagy index).
To measure mitophagy in neurons, mt-Keima, a ratiometric pH-sensitive fluorescent protein that is targeted into the mitochondrial matrix, was monitored. A low ratio mt-Keima-derived fluorescence (543 nm/458 nm) reports neutral environment whereas a high ratio fluorescence reports acidic pH (Katayama et al., Chemistry & Biology 18: 1042-1094 (2011)). […]

USP30 = assay: immunoblot of endogenous USP30 in neuronal cultures; format: cell-based, rat
Text: Adeno-associated virus type2 (AAV2) particles expressing Parkin, PINK1 and USP30 shRNAs were produced by Vector Biolabs, Inc. from pAAV-BASIC-CAGeGFP-WPRE vector containing the HI promoter and shRNA expression cassette of the pSuper vectors.
To test the function of endogenous USP30, USP30 was knocked down using shRNAs. In heterologous cells, rat USP30 shRNA plasmid specifically eliminated the expression of transfected rat USP30 cDNA (FIG. 5B). The same rat USP30 shRNA led to a ˜85% reduction in endogenous USP30 in neuronal cultures (FIG. 5C). In neurons, USP30 knockdown increased the lysosomal delivery of mt-Keima (˜60% increase in mitophagy index), relative to negative control luciferase shRNA (FIG. 5D, F).

[3] = target: T1, USP30_cd (USP30 catalytic domain with C77A mutation) (Homo sapiens, UniProt Q70CQ3, C77A); assay: spot phage ELISA against biotinylated USP30_cd; format: binding; settings: USP30_cd on NeutrAvidin plate versus NeutrAvidin plate alone
T1 construct: biotinylated USP30_cd (USP30 catalytic domain with C77A mutation); biotin (biotinylated)
T1 sequence (Q70CQ3 68-502 C77A limits assumed): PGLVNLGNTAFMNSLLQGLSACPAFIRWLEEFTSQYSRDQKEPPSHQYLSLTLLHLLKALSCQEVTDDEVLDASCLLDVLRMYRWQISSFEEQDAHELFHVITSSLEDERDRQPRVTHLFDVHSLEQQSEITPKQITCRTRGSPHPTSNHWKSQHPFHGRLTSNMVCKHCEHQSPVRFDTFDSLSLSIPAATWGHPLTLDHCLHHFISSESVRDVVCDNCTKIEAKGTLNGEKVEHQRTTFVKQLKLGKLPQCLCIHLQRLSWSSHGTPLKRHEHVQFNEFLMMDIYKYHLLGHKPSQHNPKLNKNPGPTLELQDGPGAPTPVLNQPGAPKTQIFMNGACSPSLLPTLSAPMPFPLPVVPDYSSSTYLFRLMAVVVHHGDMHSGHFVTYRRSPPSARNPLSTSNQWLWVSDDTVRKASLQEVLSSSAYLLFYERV
Text: The selection identified peptide USP30_3 and USP30_8, which had moderate spot ELISA signals (signal/noise ratios of ˜5). USP_30 and USP_8 have the sequences:
Peptide USP30_3 was selected for affinity maturation. To improve the affinity, a soft randomized library was constructed using the USP30_3 sequence as the targeted parent, and panned against USP30_cd in solution as described previously (Stanger, et al., 2012, Nat. Chem. Bio., 7: 655-660). After four rounds of solution panning, 20 peptides were identified that bound to USP30 catalytic domain with stronger spot phage ELISA signal than the parent USP30_3, manifested by an improvement in the signal/noise ratio of about 3-6 fold.
The sequences for certain affinity matured peptides are shown below the graph, along with the signal to noise ratio (“S/N”), which is the ratio of the spot phage ELISA signal (“signal”) detected against biotinylated USP30 cd captured on NeutrAvidin-coated 384 well Maxisorb plates versus the ELISA signal against the NeutrAvidin-coated plate alone. […] All of the affinity matured peptides shown had signal to noise ratios of greater than 10 except for USP30_3.27 and USP30_3.62.

Drosophila [4] = format: in vivo; settings: Actin-GAL4 and UAS-dUSP30^RNAi control groups, paraquat 10 mM, 96 hours
Procedure: Ten adult 1-day old males per vial were fed a solution containing 5% sucrose only (in water) or 5% sucrose+10 mM paraquat (in water) on saturated Whatman paper. The number of live flies was counted at described intervals.
To test whether USP30 knockdown has an effect on organism survival, we monitored the percentage of live flies over prolonged treatment with paraquat (10 mM, 96 hours). […] Only <15% of flies treated with paraquat were alive in Actin-GAL4 and UAS-dUSP30^RNAi control groups at 96 hours whereas ˜45% of flies were alive in the Actin-GAL4>UAS-dUSP30^RNAi (‘whole body dUSP30 knockdown’) group (FIG. 12G). We confirmed that the benefit of USP30 knockdown was not due to differences in exposure to paraquat since all three fly lines ingested roughly equal amounts of paraquat as measured by LC-MS/MS (average mass of paraquat per fly: UAS-dUSP30^RNAi: 3.2 μg, Actin-GAL4: 2.7 μg, Actin-GAL4>UAS-dUSP30R^RNAi: 2.7 μg). […] Remarkably, USP30 knockdown specifically in Ddc neurons was sufficient to provide significant survival benefit, albeit less than the whole body USP30 knockdown (FIG. 12H).

[5] = format: in vivo, Drosophila; settings: 10 mM, 48 hours
Procedure: 1-day old adult males were fed a solution containing 5% sucrose only (in water) or 5% sucrose+10 mM paraquat (in water) on saturated Whatman paper. After 48 hours of treatment, 15 flies were collected per condition and homogenized in 100 μL water. Standard curve samples were generated by spiking appropriate amounts of paraquat to homogenates from untreated flies. Then the samples were vortex mixed, 200 μL of acetonitrile containing internal standard (Propranolol) was added. The samples were vortexed again and centrifuged at 10,000×g for 10 min. Supernatants were transferred to a new plate that contained 200 μL of water and analyzed by LC-MS/MS to quantify for concentrations of paraquat. The LC-MS/MS consisted of an Agilent 1100 series HPLC system (Santa Clara, Calif.) and an HTS PAL autosampler from CTC Analytics (Carrboro, N.C.) coupled with a 4000 Q TRAP® MS and TurbolonSpray® ion source from Applied Biosystems (Foster City, Calif.). HPLC separation was performed on a Waters Atlantis dC18 column (3 μm 100×2.1 mm) with a Krud Katcher guard column from Phenomenex. Quantitation was carried out using the multiple reaction monitoring (MRM) with transition 185.1→165.1 for paraquat and 260.2→183.1 for propranolol. The lower and upper limit of the assay is 10 μM and 1000 μM, respectively. The quatitation of the assay employed a calibration curve which was constructed through plotting the analyte/IS peak area ration versus the nominal concentration of paraquat with a weighed 1/x^2 linear regression.
To test whether USP30 knockdown has an effect on organism survival, we monitored the percentage of live flies over prolonged treatment with paraquat (10 mM, 96 hours). […] We confirmed that the benefit of USP30 knockdown was not due to differences in exposure to paraquat since all three fly lines ingested roughly equal amounts of paraquat as measured by LC-MS/MS (average mass of paraquat per fly: UAS-dUSP30^RNAi: 3.2 μg, Actin-GAL4: 2.7 μg, Actin-GAL4>UAS-dUSP30R^RNAi: 2.7 μg). […]

Drosophila [6] = assay: dopamine levels in fly heads by ELISA; format: in vivo; settings: control fly lines, paraquat 10 mM, 48 hours
Text: To examine the effect of suppressing USP30 in neurons that are relevant to PD, we used dopamine decarboxylase (Ddc)-GAL439 to drive dUSP30^RNAi specifically in aminergic neurons of the fly nervous system. As a model of mitochondrial damage and PD, we treated flies with paraquat, a mitochondrial toxin linked to PD (Castello et al., J. Biol. Chem., 282: 14186-14193 (2007); Cocheme et al., J. Biol. Chem., 283: 1786-1798 (2008); Tanner et al., Environmental Health Perspect., 119: 866-872 (2011)). […] This climbing defect was fully rescued by additional treatment with L-DOPA (FIG. 17D), showing that this behavioral deficit is likely due to depletion of dopamine. Consistently, in control fly lines (Ddc-GAL4 or UAS-dUSP30^RNAi transgenics alone), paraquat treatment (10 mM, 48 hours) caused a 30-60% reduction in dopamine levels in fly heads without altering serotonin neurotransmitter levels (indicating specific toxicity of paraquat on the dopaminergic system in this model—FIG. 12F and FIG. 17E).

N[C@@H](Cc1ccc(O)c(O)c1)C(=O)O [L-DOPA]
rescue of paraquat-induced climbing defect (Drosophila [1]): fully rescued

CCAGAGCCCTGTTCGGTTT ((CCAGAGCCCTGTTCGGTTT; as printed in the source, key not given here) [rat USP30 shRNA]
relative oxidation index (hippocampal neurons): ~0.4
increase in mitophagy index [2]: ~60%
reduction in endogenous USP30 (USP30): ~85%

CC(C)C[C@H](NC(=O)[C@@H]1CCCN1)C(=O)N[C@@H](Cc1ccc(O)cc1)C(=O)N[C@H]1CSSC[C@@H](C(=O)N[C@@H](Cc2ccccc2)C(=O)N[C@@H](Cc2ccc(O)cc2)C(=O)O)NC(=O)[C@H](CC(C)C)NC(=O)[C@H](Cc2ccc(O)cc2)NC(=O)CNC(=O)[C@H](Cc2ccc(O)cc2)NC(=O)[C@H]([C@@H](C)O)NC(=O)[C@H](CC(C)C)NC(=O)[C@H](CC(=O)O)NC(=O)[C@H](Cc2ccc(O)cc2)NC(=O)[C@H](Cc2ccccc2)NC1=O [USP30_3, PLYCFYDLTYGYLCFY] (H-PLYCFYDLTYGYLCFY-OH; disulfide 4-14; N-terminus and C-terminus assumed)
spot ELISA signal/noise ratio [3]: ~5

C[n+]1ccc(-c2cc[n+](C)cc2)cc1 [paraquat, paraquat dichloride]
flies alive (Drosophila [4]): < 15%
average mass of paraquat per fly ([5]; Actin-GAL4>UAS-dUSP30^RNAi flies): 2.7 µg
average mass of paraquat per fly ([5]; Actin-GAL4 flies): 2.7 µg
average mass of paraquat per fly ([5]; UAS-dUSP30^RNAi flies): 3.2 µg
reduction in dopamine levels in fly heads (Drosophila [6]): 30-60%
